Laboratory results published in PubChem BioAssay (NCI).
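Briefly, cells in 96-well plates were exposed to five compound concentrations for 48 h, and endpoints were estimated by linear interpolation. The concentration for full growth arrest is given as TGI.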

Experiments:
Assay in all cases: NCI tumour cell line growth inhibition, 48 h
DMS 114 small cell lung = tested on: DMS 114 small cell lung
SW-620 colon = tested on: SW-620 colon
SN12C renal = tested on: SN12C renal
M19-MEL melanoma = tested on: M19-MEL melanoma
KM12 colon = tested on: KM12 colon
SK-MEL-5 melanoma = tested on: SK-MEL-5 melanoma
ACHN renal = tested on: ACHN renal
SNB-75 CNS = tested on: SNB-75 CNS
UACC-62 melanoma = tested on: UACC-62 melanoma
PC-3 prostate = tested on: PC-3 prostate
T-47D breast = tested on: T-47D breast

Row | Structure (SMILES) | TGI (DMS 114 small cell lung) | TGI (SW-620 colon) | TGI (SN12C renal) | TGI (M19-MEL melanoma) | TGI (KM12 colon) | TGI (SK-MEL-5 melanoma) | TGI (ACHN renal) | TGI (SNB-75 CNS) | TGI (UACC-62 melanoma) | TGI (PC-3 prostate) | TGI (T-47D breast)
1 | COC(=O)C1C=CCON2CCc3c(n(C)c4ccccc34)C12 (centres undefined) | > 100 µM | > 100 µM | > 100 µM | > 100 µM | > 100 µM | > 100 µM | > 100 µM | > 100 µM |  |  | 
2 | Cc1c(CCO)c(=O)n2c([nH]c3ccccc32)c1C#N | > 100 µM | > 100 µM |  | > 100 µM | > 100 µM | > 100 µM | > 100 µM | > 100 µM | > 100 µM |  | 
3 | CCN(CC)c1ccc(N=Nc2ccc([N+](=O)[O-])cc2OC(=O)/C=C/c2ccccc2)c(OC(=O)/C=C/c2ccccc2)c1 | > 25.2 µM | > 100 µM | > 100 µM | > 100 µM | > 35.8 µM | > 100 µM | > 100 µM | > 100 µM | > 74.8 µM |  | 
4 | CCn1c(SC(C)C(=O)c2c(C)n(C)n(-c3ccccc3)c2=O)nc2ccccc2c1=O (centres undefined) | > 100 µM |  | > 100 µM | > 100 µM | > 100 µM | > 100 µM | > 100 µM | > 100 µM | > 100 µM |  | 
5 | O=C1c2ccccc2C(=O)c2c(O)c(NCCCNCCO)cc(O)c21 | 26.2 µM | 18.4 µM | 25.8 µM | 27.4 µM | 21 µM |  | 15.9 µM | 26.8 µM | 36.5 µM |  | 
6 | CC1(C)O[C@@H](CCl)C[C@H](C#N)O1 | > 100 µM | > 100 µM | > 100 µM | > 100 µM | > 100 µM | > 100 µM | > 100 µM | > 100 µM | > 100 µM |  | 
7 | COc1cc(CNc2cnc3cc(N)ccc3n2)cc(OC)c1OC | 61 µM | > 100 µM | > 100 µM | > 100 µM | > 100 µM | > 100 µM | > 100 µM | > 100 µM | > 100 µM |  | 
8 | O=c1cc(NNc2cccc(F)c2)[nH]c(=O)[nH]1 |  | 34.5 µM | > 100 µM |  | > 100 µM | > 100 µM | > 100 µM | > 100 µM | > 100 µM | > 100 µM | 31.7 µM
9 | CCCCCCNC(=O)CCC(NC(=O)c1ccc(N(C)Cc2cnc3nc(N)nc(N)c3n2)cc1)C(=O)NCCCCCC (centres undefined) |  | > 100 µM | > 100 µM |  | > 100 µM | > 100 µM | > 100 µM | > 100 µM | > 100 µM | > 100 µM | > 100 µM
10 | C=CC(OC(C)=O)c1ccc(OC(=O)C(C)C)c(OC)c1 (centres undefined) |  | 7.69 µM | 15.2 µM |  | 7.2 µM | 30.1 µM | 10.4 µM | 13 µM | 31.5 µM | 19.3 µM | 21.9 µM
11 | CCC/C=C1\CCC(CN(C)C)C1=O (centres undefined) | 31.2 µM | 11.6 µM | 32.7 µM | 26.7 µM | 15.3 µM | 32.3 µM | 11.2 µM | 32.9 µM | 28.2 µM |  | 
12 | COC(=O)/C=C\C(C#N)(C#N)N=Cc1ccccc1 |  | 5.54 µM | 26.6 µM |  | 33.4 µM | 28 µM | 6.35 µM | 14.5 µM | 28 µM | 13.1 µM | 3.88 µM
13 | NNc1nncc2[nH]cnc12 |  | > 100 µM | > 100 µM |  | > 100 µM | > 100 µM | > 100 µM | > 100 µM | > 100 µM | > 100 µM | > 100 µM
14 | CCOC(=O)c1c(-c2ccc(Cl)cc2)c(C#N)c(=S)n(C2OC(COC(C)=O)C(OC(C)=O)C(OC(C)=O)C2OC(C)=O)c1-c1ccccc1 (centres undefined) |  | > 100 µM | > 100 µM |  | > 100 µM | > 100 µM | > 100 µM | > 100 µM | > 100 µM | > 100 µM | > 100 µM
15 | C=C1c2nc3ccccc3n2C=C(c2ccc(C)cc2)N1c1ccc(C)cc1 |  | > 100 µM | > 100 µM |  | > 82.2 µM | > 69.8 µM | > 100 µM | > 100 µM | > 100 µM | > 100 µM | > 100 µM
16 | O=[N+]([O-])c1ccc(N/N=C/CC(O)(C(F)(F)F)C(F)(F)F)c([N+](=O)[O-])c1 |  | > 10 µM | > 10 µM |  | > 10 µM | > 10 µM | > 10 µM | > 10 µM | > 10 µM | > 10 µM | > 10 µM
17 | CC1(C)C(=O)c2ccccc2OC1N1CCN(C2Oc3ccccc3C(=O)C2(C)C)CC1 (centres undefined) |  | > 100 µM | > 100 µM |  | > 100 µM | > 100 µM | > 100 µM | > 100 µM | > 100 µM | > 100 µM | > 100 µM
18 | COC(OC)C1OCC(n2cc(F)c(=O)[nH]c2=O)C1O (centres undefined) |  | > 100 µM | > 100 µM |  | > 100 µM | > 100 µM | > 100 µM | > 100 µM | > 100 µM | > 100 µM | > 100 µM

Row | Structure (SMILES) | TGI (DMS 114 small cell lung) | TGI (SW-620 colon) | TGI (SN12C renal) | TGI (M19-MEL melanoma) | TGI (KM12 colon) | TGI (SK-MEL-5 melanoma) | TGI (ACHN renal) | TGI (SNB-75 CNS) | TGI (UACC-62 melanoma) | TGI (PC-3 prostate) | TGI (T-47D breast)
19 | CCOC(=O)c1cc(I)c(-c2cc(C)no2)n1C |  | > 100 µM | 69.4 µM |  | 49.3 µM | > 100 µM | > 100 µM | > 100 µM | > 100 µM | > 100 µM | > 100 µM
20 | O=c1c2c3c(sc2nc2n1N=C(c1ccc(Cl)cc1)CS2)CCCC3 |  | > 100 µM | > 100 µM |  | > 100 µM | > 100 µM | > 100 µM | > 100 µM | > 100 µM | > 100 µM | > 100 µM
21 | Oc1ccc(Cl)cc1-c1cc(-c2ccccc2)nc(NCN2CCCCC2)n1 |  | > 100 µM | > 100 µM |  | > 100 µM | > 100 µM | > 100 µM | > 100 µM | > 100 µM | > 100 µM | > 100 µM
22 | O=S(OC12CC3CC(CC(C3)C1)C2)c1cc(Cl)cc(Cl)c1OCc1ccccc1 (centres undefined) | > 100 µM |  | > 100 µM | > 100 µM | > 100 µM |  | > 100 µM | > 100 µM | > 100 µM |  | 
23 | O=c1cc(-c2c[nH]c3ccccc23)[nH]c2cc3c(cc12)OCO3 | > 100 µM | > 100 µM | > 100 µM | > 100 µM |  | > 100 µM | > 100 µM | 72.6 µM | > 100 µM |  | 
24 | CC1(C)C(CCO)CC1n1cc(I)c(=O)[nH]c1=O (centres undefined) |  | > 100 µM | > 100 µM |  | > 100 µM | > 100 µM | > 100 µM | > 100 µM | > 100 µM | > 100 µM | > 100 µM
25 | CSc1cc(-c2ccccn2)nc(-c2ccccn2)c1 |  | 16.6 µM | 13.4 µM |  | 14.4 µM | 4.07 µM | 0.977 µM | 13.6 µM | 1.23 µM | 17.9 µM | 17.6 µM
26 | CCCC(C)n1c(C)nc2c1C(=O)c1ccccc1C2=O (centres undefined) |  | > 100 µM | > 100 µM | 29.1 µM | > 100 µM | 30 µM | 95.8 µM | > 100 µM | 23.8 µM |  | 
27 | C=CCc1cc(-c2cc(CC=C)c(O)c(CN(CC)CC)c2)cc(CN(CC)CC)c1O | > 100 µM | 76.2 µM | > 100 µM | 43.8 µM | > 100 µM | 25.9 µM | > 100 µM | > 100 µM | 48.5 µM | > 100 µM | > 100 µM
28 | CSc1c(C#N)c(N)nc2c(N=Nc3ccc(Br)cc3)c(N)nn12 |  | 12.7 µM | 13.4 µM |  | 23.6 µM | 40.2 µM | 18.5 µM | 28.8 µM | 19.4 µM | 23.5 µM | 4.74 µM
29 | CC(=O)OC(Cc1ccc2ccccc2n1)(C(F)(F)F)C(F)(F)F |  | 12 µM | 7.27 µM |  | 12.7 µM | 1.38 µM | 14.4 µM | 13.5 µM | 2.93 µM | 11.7 µM | 0.912 µM
30 | O=c1oc2ccc([N+](=O)[O-])cc2c(Nc2ccc3c(c2)Sc2ccccc2O3)c1[N+](=O)[O-] |  | 80.6 µM | 51.2 µM |  | 49.8 µM | 41.1 µM | 72 µM | 79 µM | 32.3 µM | 40.8 µM | > 100 µM
31 | O=C(c1ccccc1)n1cc(-c2ccccc2)c2c(=O)[nH]cnc21 |  | > 100 µM | > 100 µM |  | > 100 µM | > 100 µM | > 100 µM | > 100 µM | > 100 µM | > 100 µM | > 100 µM
32 | O=[N+]([O-])c1ccccc1S(=O)(=O)c1ccccc1 | > 100 µM | > 100 µM | > 100 µM | > 100 µM | > 100 µM | > 100 µM | > 100 µM | > 100 µM | > 100 µM |  | 
33 | O=C(O)C[C@@H]1[C@@H](O)[C@@H](O)CN2C(=O)c3ccccc3[C@H]12 |  | > 100 µM | > 100 µM |  | > 100 µM | > 100 µM | > 100 µM | > 100 µM | > 100 µM | > 100 µM | > 100 µM
34 | CCOC(=O)c1nc2ccccc2nc1Oc1ccc(C(=O)OC)cc1 |  | > 100 µM | > 100 µM |  | > 100 µM | > 100 µM | > 100 µM | > 100 µM | > 100 µM | > 100 µM | > 100 µM
35 | COC1CC(OC2C(C)OC(OC3C(C)OC(OC4C(O)CC(O[C@H]5CC[C@@]6(C)C(=CC[C@]7(O)[C@@H]6C[C@@H](OC(C)=O)[C@@]6(C)[C@]7(O)CC[C@@]6(O)C(C)=O)C5)OC4C)CC3OC)CC2OC)OC(C)C1O (some centres undefined) |  | > 12.5 µM | > 12.5 µM |  | > 12.5 µM | > 12.5 µM | > 12.5 µM | > 12.5 µM | > 12.5 µM | > 12.5 µM | > 12.5 µM
